Results from patent publication US20240251783A1, “COMPOSITIONS AND METHODS FOR LUNG PRESERVATION” (University Health Network, priority 2021, published 2024).

Experiments:
[1] = test system: Human lung epithelial (BEAS-2B) cells; assay: Cell culture model simulating hypothermic lung preservation and warm reperfusion; MTS cell viability and phase contrast morphology; type: cell-based; conditions: 42 h CIT
Procedure: (§1) Human lung epithelial (BEAS-2B) cells or human pulmonary microvascular endothelial cells (HPMEC) were cultured to confluence at 37° C., 5% CO2 in DMEM (Gibco; Waltham MA) with 10% of fetal bovine serum (FBS, Gibco), or in M199 medium (Thermo Scientific, Waltham MA) with 20% of FBS, respectively. After cells reached confluence, medium was replaced with different testing solutions, and cells were switched to a chamber at 4° C. with 50% O2 to simulate hypothermic lung preservation. After different periods of cold ischemic time (CIT), cells were switched back to DMEM+10% FBS or M199+20% FBS at 37° C. with 5% CO2 for 4 h to simulate reperfusion. Cell morphology was recorded with phase contrast microscopy.
(§2) CellTiter 96® AQueous One Solution Cell Proliferation Assay (MTS) was used to determine effects of different solutions on cell viabilities. Cells were seeded in 96-well plates at 15,000 cells/100 μl/well, and incubated with serum containing culture medium as described above, at 37° C./5% CO2 overnight. After switching to different preservation solutions for various periods of CIT, and followed by 3 h simulated reperfusion, and then 20 μl of CellTiter 96@ AQueousOne Solution (Promega; Madison, WI) was added to each well. After additional 1 h incubation, optical density of each well was measured using a plate reader (Biotek Instrument Inc., Winooski, VT) set to 490 nm.

[2] = test system: human pulmonary microvascular endothelial cells (HPMEC); assay: Cell culture model simulating hypothermic lung preservation and warm reperfusion; MTS cell viability; type: cell-based; conditions: 42 h CIT
Procedure: as §1, §2

## dextran 40
[1]; 50 mg/ml added to M199(p)
  effect of addition of dextran 40 on cell viability: further significantly improved cell viability
[1]; 50 mg/ml added to RPMI-1640(p)
  effect of addition of dextran 40 on cell viability: not further enhanced
[2]; 50 mg/ml added to M199(p)
  effect of addition of dextran 40 on cell viability: further significantly improved cell viability
[2]; 50 mg/ml added to RPMI-1640(p)
  effect of addition of dextran 40 on cell viability: not further enhanced
